Assay results as given in ChEMBL document CHEMBL5260848, “Recent advancements in the development of bioactive pyrazoline derivatives” (Eur J Med Chem, 2020).
Converted amounts (≈) assume the structure as drawn.

Columns and labels:
[1] = molecular target: T1, Amine oxidase [flavin-containing] A (Homo sapiens, UniProt P21397)
T1 sequence (P21397 whole entry): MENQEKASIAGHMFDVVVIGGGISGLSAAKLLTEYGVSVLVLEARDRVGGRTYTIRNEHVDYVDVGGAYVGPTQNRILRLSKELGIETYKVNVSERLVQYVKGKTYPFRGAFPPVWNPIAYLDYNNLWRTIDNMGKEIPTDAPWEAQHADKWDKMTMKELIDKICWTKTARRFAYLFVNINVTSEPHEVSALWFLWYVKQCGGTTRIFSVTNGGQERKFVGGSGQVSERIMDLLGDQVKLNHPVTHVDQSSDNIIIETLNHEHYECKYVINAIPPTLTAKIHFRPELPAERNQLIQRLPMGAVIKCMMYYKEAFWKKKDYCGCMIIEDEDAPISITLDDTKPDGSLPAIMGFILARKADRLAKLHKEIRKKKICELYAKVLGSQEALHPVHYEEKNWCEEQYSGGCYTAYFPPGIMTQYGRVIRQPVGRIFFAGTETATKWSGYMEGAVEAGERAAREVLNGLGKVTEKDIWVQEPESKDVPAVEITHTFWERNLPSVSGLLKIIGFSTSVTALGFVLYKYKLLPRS

[2] = system: Aspergillus fumigatus; test: Antifungal activity against Aspergillus fumigatus incubated for 24 hrs by disc diffusion method; format: functional
[3] = system: Pseudomonas aeruginosa; test: microbe, parasite or virus in culture; settings: 24 h
[4] = system: Staphylococcus aureus; test: microbe, parasite or virus in culture; settings: 24 h
[5] = system: Bacillus subtilis; test: microbe, parasite or virus in culture; settings: 24 h
[6] = system: Candida albicans; test: microbe, parasite or virus in culture; settings: 24 h
[7] = system: Aspergillus niger; test: Antifungal activity against Aspergillus niger incubated for 24 hrs by disc diffusion method; format: functional
[8] = system: Aspergillus flavus; test: Antifungal activity against Aspergillus flavus incubated for 24 hrs by disc diffusion method; format: functional
[9] = system: Escherichia coli; test: Antibacterial activity against Escherichia coli incubated for 24 hrs by disc diffusion method; format: functional
[10] = system: Mycobacterium tuberculosis; test: microbe, parasite or virus in culture; settings: 120 h

Compound: Cc1ccc(C2=NN(C(=S)Nc3ccccc3)C(c3ccc(F)cc3)C2)cc1 (stereo not drawn)
- Ki [1]: 100 pM

Compound: O=C(NNS(=O)(=O)c1ccccc1)N1N=C(c2ccccc2)CC1c1ccc(Br)cc1 (stereo not drawn)
- MIC [2]: 25 µg/mL (≈ 50.1 µM)
- MIC [3]: 25 µg/mL (≈ 50.1 µM)
- MIC [4]: 25 µg/mL (≈ 50.1 µM)
- MIC [5]: 25 µg/mL (≈ 50.1 µM)
- MIC [6]: 25 µg/mL (≈ 50.1 µM)
- MIC [7]: 25 µg/mL (≈ 50.1 µM)
- MIC [8]: 25 µg/mL (≈ 50.1 µM)
- MIC [9]: 25 µg/mL (≈ 50.1 µM)
- MIC [10]: 0.8 µg/mL (≈ 1.6 µM)

Compound: O=C(NNS(=O)(=O)c1ccc(F)cc1)N1N=C(c2ccc(F)cc2)CC1c1ccc(F)cc1 (stereo not drawn)
- MIC [2]: 25 µg/mL (≈ 52.7 µM)
- MIC [3]: 25 µg/mL (≈ 52.7 µM)
- MIC [4]: 25 µg/mL (≈ 52.7 µM)
- MIC [5]: 25 µg/mL (≈ 52.7 µM)
- MIC [6]: 25 µg/mL (≈ 52.7 µM)
- MIC [7]: 25 µg/mL (≈ 52.7 µM)
- MIC [8]: 25 µg/mL (≈ 52.7 µM)
- MIC [9]: 25 µg/mL (≈ 52.7 µM)
- MIC [10]: 0.8 µg/mL (≈ 1.69 µM)

Compound: O=C(NNS(=O)(=O)c1ccccc1)N1N=C(c2ccccc2)CC1c1ccc(Cl)cc1 (stereo not drawn)
- MIC [2]: 25 µg/mL (≈ 55 µM)
- MIC [3]: 25 µg/mL (≈ 55 µM)
- MIC [4]: 25 µg/mL (≈ 55 µM)
- MIC [5]: 25 µg/mL (≈ 55 µM)
- MIC [6]: 25 µg/mL (≈ 55 µM)
- MIC [7]: 25 µg/mL (≈ 55 µM)
- MIC [8]: 25 µg/mL (≈ 55 µM)
- MIC [9]: 25 µg/mL (≈ 55 µM)
- MIC [10]: 1.6 µg/mL (≈ 3.52 µM)

Compound: Cc1ccc(C2CC(c3ccccc3)=NN2C(=O)NNS(=O)(=O)c2ccc(F)cc2)cc1 (stereo not drawn)
- MIC [2]: 25 µg/mL (≈ 55.2 µM)
- MIC [3]: 25 µg/mL (≈ 55.2 µM)
- MIC [4]: 25 µg/mL (≈ 55.2 µM)
- MIC [5]: 25 µg/mL (≈ 55.2 µM)
- MIC [6]: 25 µg/mL (≈ 55.2 µM)
- MIC [7]: 25 µg/mL (≈ 55.2 µM)
- MIC [8]: 25 µg/mL (≈ 55.2 µM)
- MIC [9]: 25 µg/mL (≈ 55.2 µM)
- MIC [10]: 0.8 µg/mL (≈ 1.77 µM)

Compound: CSc1ccc(C2CC(c3ccccc3)=NN2C(=O)NNS(=O)(=O)c2ccccc2)cc1 (stereo not drawn)
- MIC [2]: 25 µg/mL (≈ 53.6 µM)
- MIC [3]: 25 µg/mL (≈ 53.6 µM)
- MIC [4]: 25 µg/mL (≈ 53.6 µM)
- MIC [5]: 25 µg/mL (≈ 53.6 µM)
- MIC [6]: 25 µg/mL (≈ 53.6 µM)
- MIC [7]: 25 µg/mL (≈ 53.6 µM)
- MIC [8]: 25 µg/mL (≈ 53.6 µM)
- MIC [9]: 25 µg/mL (≈ 53.6 µM)
- MIC [10]: 0.8 µg/mL (≈ 1.71 µM)

Compound: O=C(NNS(=O)(=O)c1ccc(F)cc1)N1N=C(c2ccccc2)CC1c1ccc(Cl)cc1 (stereo not drawn)
- MIC [2]: 25 µg/mL (≈ 52.9 µM)
- MIC [3]: 25 µg/mL (≈ 52.9 µM)
- MIC [4]: 25 µg/mL (≈ 52.9 µM)
- MIC [5]: 25 µg/mL (≈ 52.9 µM)
- MIC [6]: 25 µg/mL (≈ 52.9 µM)
- MIC [7]: 25 µg/mL (≈ 52.9 µM)
- MIC [8]: 25 µg/mL (≈ 52.9 µM)
- MIC [9]: 25 µg/mL (≈ 52.9 µM)
- MIC [10]: 0.8 µg/mL (≈ 1.69 µM)

Compound: O=C(NNS(=O)(=O)c1ccc(F)cc1F)N1N=C(c2ccccc2)CC1c1ccccc1 (stereo not drawn)
- MIC [2]: 25 µg/mL (≈ 54.8 µM)
- MIC [3]: 25 µg/mL (≈ 54.8 µM)
- MIC [4]: 25 µg/mL (≈ 54.8 µM)
- MIC [5]: 25 µg/mL (≈ 54.8 µM)
- MIC [6]: 25 µg/mL (≈ 54.8 µM)
- MIC [7]: 25 µg/mL (≈ 54.8 µM)
- MIC [8]: 25 µg/mL (≈ 54.8 µM)
- MIC [9]: 25 µg/mL (≈ 54.8 µM)
- MIC [10]: 0.8 µg/mL (≈ 1.75 µM)

Compound: O=C(NNS(=O)(=O)c1ccc(F)cc1)N1N=C(c2ccccc2)CC1c1ccccc1 (stereo not drawn)
- MIC [2]: 25 µg/mL (≈ 57 µM)
- MIC [3]: 25 µg/mL (≈ 57 µM)
- MIC [4]: 25 µg/mL (≈ 57 µM)
- MIC [5]: 25 µg/mL (≈ 57 µM)
- MIC [6]: 25 µg/mL (≈ 57 µM)
- MIC [7]: 25 µg/mL (≈ 57 µM)
- MIC [8]: 25 µg/mL (≈ 57 µM)
- MIC [9]: 25 µg/mL (≈ 57 µM)
- MIC [10]: 0.8 µg/mL (≈ 1.82 µM)

Compound: COc1ccc(C2CC(c3ccccc3)=NN2C(=O)NNS(=O)(=O)c2ccc(F)cc2)cc1 (stereo not drawn)
- MIC [2]: 25 µg/mL (≈ 53.4 µM)
- MIC [3]: 25 µg/mL (≈ 53.4 µM)
- MIC [4]: 25 µg/mL (≈ 53.4 µM)
- MIC [5]: 25 µg/mL (≈ 53.4 µM)
- MIC [6]: 25 µg/mL (≈ 53.4 µM)
- MIC [7]: 25 µg/mL (≈ 53.4 µM)
- MIC [8]: 25 µg/mL (≈ 53.4 µM)
- MIC [9]: 25 µg/mL (≈ 53.4 µM)
- MIC [10]: 0.8 µg/mL (≈ 1.71 µM)

Compound: Cc1ccc(C2CC(c3ccccc3)=NN2C(=O)NNS(=O)(=O)c2ccc(F)cc2F)cc1 (stereo not drawn)
- MIC [2]: 25 µg/mL (≈ 53.1 µM)
- MIC [3]: 25 µg/mL (≈ 53.1 µM)
- MIC [4]: 25 µg/mL (≈ 53.1 µM)
- MIC [5]: 25 µg/mL (≈ 53.1 µM)
- MIC [6]: 25 µg/mL (≈ 53.1 µM)
- MIC [7]: 25 µg/mL (≈ 53.1 µM)
- MIC [8]: 25 µg/mL (≈ 53.1 µM)
- MIC [9]: 25 µg/mL (≈ 53.1 µM)
- MIC [10]: 0.8 µg/mL (≈ 1.7 µM)

Compound: O=C(NNS(=O)(=O)c1ccc(F)cc1F)N1N=C(c2ccccc2)CC1c1ccc(Br)cc1 (stereo not drawn)
- MIC [2]: 25 µg/mL (≈ 46.7 µM)
- MIC [3]: 25 µg/mL (≈ 46.7 µM)
- MIC [4]: 25 µg/mL (≈ 46.7 µM)
- MIC [5]: 25 µg/mL (≈ 46.7 µM)
- MIC [6]: 25 µg/mL (≈ 46.7 µM)
- MIC [7]: 25 µg/mL (≈ 46.7 µM)
- MIC [8]: 25 µg/mL (≈ 46.7 µM)
- MIC [9]: 25 µg/mL (≈ 46.7 µM)
- MIC [10]: 0.8 µg/mL (≈ 1.49 µM)

Compound: COc1ccc(C2CC(c3ccccc3)=NN2C(=O)NNS(=O)(=O)c2ccc(F)cc2F)cc1 (stereo not drawn)
- MIC [2]: 25 µg/mL (≈ 51.4 µM)
- MIC [3]: 25 µg/mL (≈ 51.4 µM)
- MIC [4]: 25 µg/mL (≈ 51.4 µM)
- MIC [5]: 25 µg/mL (≈ 51.4 µM)
- MIC [6]: 25 µg/mL (≈ 51.4 µM)
- MIC [7]: 25 µg/mL (≈ 51.4 µM)
- MIC [8]: 25 µg/mL (≈ 51.4 µM)
- MIC [9]: 25 µg/mL (≈ 51.4 µM)
- MIC [10]: 0.8 µg/mL (≈ 1.64 µM)

Compound: O=C(NNS(=O)(=O)c1ccc(F)cc1)N1N=C(c2ccccc2)CC1c1ccc(F)cc1 (stereo not drawn)
- MIC [2]: 25 µg/mL (≈ 54.8 µM)
- MIC [3]: 25 µg/mL (≈ 54.8 µM)
- MIC [4]: 25 µg/mL (≈ 54.8 µM)
- MIC [5]: 25 µg/mL (≈ 54.8 µM)
- MIC [6]: 25 µg/mL (≈ 54.8 µM)
- MIC [7]: 25 µg/mL (≈ 54.8 µM)
- MIC [8]: 25 µg/mL (≈ 54.8 µM)
- MIC [9]: 25 µg/mL (≈ 54.8 µM)
- MIC [10]: 0.8 µg/mL (≈ 1.75 µM)
